Consider 15 compounds from paper PMC12779811, “Diverse phloroglucinols with hAChE inhibitory and anti-VRE effects from Rhodomyrtus tomentosa fruits” (Natural Products and Bioprospecting, 2026).

Converted amounts (≈) assume the structure as drawn.

Experiment [1] concerns the target T1, human acetylcholinesterase (hAChE) (Homo sapiens, UniProt P22303). As to the kind of experiment: biochemical. To be noted: triplicate; galantamine positive control; IC50 exceeding 40 μM considered inactive; read-out: hAChE inhibitory activity IC50 ± SD. The procedure:
hAChE inhibition assays were performed according to a reported protocol, with galantamine as the positive control. All assays were performed in triplicate.

Experiment [2] deals with vancomycin-resistant Enterococci (VRE). Put plainly: Anti-VRE assay, standard broth microdilution method in 96-well plates. In kind it is cell-based. To be noted: Enterococcus, ampicillin positive control, tests performed three times, read-out: MIC against vancomycin-resistant Enterococci (VRE). The procedure:
As described in earlier studies, the antibacterial activities against vancomycin-resistant Enterococci (VRE) were achieved by a standard broth microdilution method in 96-well plates. Ampicillin (AMP) was a positive control, and all tests were performed three times.

For experiment [3], the target named is T1, human acetylcholinesterase (hAChE). On the set-up: method as in PMID 36007662. Particulars: earlier report; cited from earlier work.

T1 sequence (P22303 32-614): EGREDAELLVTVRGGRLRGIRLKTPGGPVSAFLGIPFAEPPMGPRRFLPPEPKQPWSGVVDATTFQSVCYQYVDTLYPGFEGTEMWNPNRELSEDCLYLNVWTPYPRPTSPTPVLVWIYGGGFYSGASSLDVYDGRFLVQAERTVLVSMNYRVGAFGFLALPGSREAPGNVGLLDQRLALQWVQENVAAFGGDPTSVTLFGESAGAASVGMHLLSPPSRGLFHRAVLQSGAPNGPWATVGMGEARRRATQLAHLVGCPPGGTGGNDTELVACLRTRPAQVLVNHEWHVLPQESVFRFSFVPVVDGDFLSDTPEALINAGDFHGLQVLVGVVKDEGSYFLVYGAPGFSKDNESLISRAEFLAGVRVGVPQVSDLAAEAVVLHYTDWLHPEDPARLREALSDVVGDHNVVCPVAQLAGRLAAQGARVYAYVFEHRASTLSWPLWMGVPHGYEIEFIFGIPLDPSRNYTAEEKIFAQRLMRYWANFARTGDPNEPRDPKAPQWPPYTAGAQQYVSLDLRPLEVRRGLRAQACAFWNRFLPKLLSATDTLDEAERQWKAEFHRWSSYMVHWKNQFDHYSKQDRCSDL

In the case of `CCC(C)C(=O)c1c(O)cc(O)c2c1OC1=C(C(=O)C(C)(C)C(=O)C1(C)C)C2C(C)CC` (stereo not shown) [phloroglucinol 7, rhodotomentodimer M], the IC50 in experiment [1] is 2.41 ± 0.22 µM.
As for `CC(C)CC(=O)c1c(O)cc(O)c2c1OC1=C(C(=O)C(C)(C)C(=O)C1(C)C)C2C(C)C` (stereo not shown) [phloroglucinol 14, callistenone A], the IC50 in experiment [1] amounted to 1.23 ± 0.11 µM. The minimum inhibitory concentration (MIC) in experiment [2] was above 32 µg/mL.
On to `CCC(C)C(=O)c1c(O)cc2c(c1O)C(C(C)C)C1=C(O2)C(C)(C)C(=O)C(C)(C)C1=O` (stereo not shown) [phloroglucinol 9, myrciarone B], for which the IC50 in experiment [1] was found to be 2.86 ± 0.3 µM.
Take `CCC(C)C(=O)c1c(O)cc(O)c2c1OC1=C(C(=O)C(C)(C)C(=O)C1(C)C)C2C(C)C` (stereo not shown) [phloroglucinol 4, rhodotomentodimer J]: the IC50 in experiment [1] came out at 2.39 ± 0.25 µM.
The same measure, in the same setting: the same measure for `CCC(C)C(=O)c1c(O)cc(O)c2c1OC1=C(C(=O)C(C)(C)C(=O)C1(C)C)C2C(C)CC` (stereo not shown) [phloroglucinol 6, rhodotomentodimer L]: 2.62 ± 0.21 µM.
Regarding `CC(C)C(=O)c1c(O)cc2c(c1O)C(C(C)C)C1=C(O2)C(C)(C)C(=O)C(C)(C)C1=O` (stereo not shown) [phloroglucinol 11, isomyrtucommulone B], in experiment [1], the IC50 amounted to 1.36 ± 0.16 µM. For the same compound, the MIC in experiment [2] was determined as 1 µg/mL (≈ 2.41 µM).
With `CCC(C)C(=O)c1c(O)cc2c(c1O)C(C(C)CC)C1=C(O2)C(C)(C)C(=O)C(C)(C)C1=O` (stereo not shown) [phloroglucinol 8, rhodotomentodimer N], in experiment [1], the IC50 came to 3.35 ± 0.41 µM.
On to `CC(C)C[C@H]1C2=C(O[C@]3(C)[C@H]1C[C@]1(C(C)C)C[C@@H]13)C(C)(C)C(=O)C(C)(C)C2=O` [phloroglucinol 1, rhodotomentodione F], for which the IC50 in experiment [1] is above 40 µM.
`CC(C)C(=O)c1c(O)cc(O)c2c1OC1=C(C(=O)C(C)(C)C(=O)C1(C)C)C2C(C)C` (stereo not shown) [phloroglucinol 13, myrtucommulone B]: the IC50 in experiment [1] was determined as 1.04 ± 0.03 µM. Further, the MIC in experiment [2] is above 32 µg/mL.
Regarding `CCC(C)C(=O)c1c(O)cc(O)c2c1OC1=C(C(=O)C(C)(C)C(=O)C1(C)C)C2C(C)C` (stereo not shown) [phloroglucinol 5, rhodotomentodimer K], the IC50 in experiment [1] was 2.46 ± 0.33 µM.
On to `CCC(C)C(=O)c1c(O)cc2c(c1O)C(CC(C)C)C1=C(O2)C(C)(C)C(=O)C(C)(C)C1=O` (stereo not shown) [phloroglucinol 10, rhodotomentodimer D], for which the “inhibitory activity against human acetylcholinesterase (hAChE), in words” value in experiment [3] is reported as “exhibited inhibitory activity”.
Regarding `CC1(C)C(=O)C2=C(OC3(O)C(=C2)C(=O)C(C)(C)C(=O)C3(C)C)C(C)(C)C1=O` (stereo not shown) [phloroglucinol 2, rhodotomentodimer H], the IC50 in experiment [1] is above 40 µM.
As for `CC(C)CC(=O)c1c(O)cc2c(c1O)C(CC(C)C)C1=C(O2)C(C)(C)C(=O)C(C)(C)C1=O` (stereo not shown) [phloroglucinol 12, rhodomyrtone], the half-inhibitory concentration (IC50) in experiment [1] came to 1.52 ± 0.14 µM. Moreover, the minimal inhibitory concentration (MIC) in experiment [2] was 1 µg/mL (≈ 2.26 µM).
As for `CCC(C)C1C2=C(Oc3c(C(=O)C(C)C)c(O)cc(O)c31)C(C)(C)C(=O)C(C)(C)C2=O` (stereo not shown) [phloroglucinol 3, rhodotomentodimer I], in experiment [1], the IC50 came out at 2.89 ± 0.3 µM.
Turning to `CC1(C)S[C@@H]2[C@H](NC(=O)[C@H](N)c3ccccc3)C(=O)N2[C@H]1C(=O)O` [ampicillin, reference compound], in experiment [2], the minimum inhibitory concentration (MIC) was 2 µg/mL (≈ 5.72 µM).
